Assay results taken from patent US20240058318A1, “DEGRADING PKCB1 TO TREAT CANCER” (Mayo Foundation for Medical Education and Research, priority 2020, published 2024).
“And” between values parts separate entries of the source, which are not always exact repeats. Equal entries are not always repeated.

Assay: Pharmacokinetics in mice, plasma by UPLC-MS/MS
Assay type: in vivo, female CD1 mice
Details: for Concentration ENDX PROTAC 7: mouse plasma
Protocol: ENDX PROTAC 7 and PROTAC 9 pharmacokinetics were characterized in female CD1 mice. Blood samples were collected from mice anesthetized under isoflurane via retro-orbital eye bleed into tubes containing EDTA and immediately chilled on ice. NaF was added to the EDTA collection tubes to help stabilize the drug in whole blood for the second IV and IP studies with ENDX PROTAC 9, and for the IV and oral studies with PROTAC 7. Plasma and red blood cells were separated immediately by centrifugation in a refrigerated centrifuge at 4° C. The plasma was transferred to a separate tube and immediately frozen at −20° C.
For IV dosing, ENDX PROTAC 9 was dissolved in 10% DMSO, 10% PEG 400, and 80% normal saline for a final concentration of 0.2 mg/mL ENDX PROTAC 9 for the 1 mg/kg IV doses. ENDX PROAC 7 was dissolved in 15% DMSO, 9.44% PEG400, and […] normal saline for a final concentration of 0.19 mg/mL for the 1 mg/kg IV doses. Blood samples (3 mice per time-point) were collected 5 minutes, 15 minutes, 0.5 hour, 1 hour, 2 hours, 4 hours, 8 hours, and 24 hours after administration of the ENDX PROTAC. A second IV study was performed for ENDX PROTAC 9 in which blood samples (3 mice per time-point) were collected 5 minutes, 15 minutes, 1 hour, and 2 hours after administration of ENDX PROTAC 9. For oral dosing, ENDX PROTAC 9 (10 mg/kg) and ENDX PROTAC 7 (10 mg/kg) were suspended in 1 mM ascorbic acid:PEG400, 1:1 v/v for a final concentration of 1.0 mg/mL ENDX PROTAC. Blood samples (three mice per time-point) were collected 15 minutes, 0.5 hour, 1 hour, 2 hours, 4 hours, 6 hours, 8 hours, and 24 hours after administering the ENDX PROTAC. For LP. dosing, ENDX PROTAC 9 (4 mg/kg) was prepared in 1 mM ascorbic acid:PEG400, 1:1 v/v for a final concentration of 0.4 mg/mL ENDX PROTAC 9. Blood samples (three mice per time-point) were collected 15 minutes, 0.5 hour, 1 hour, 2 hours, 4 hours, 6 hours, 8 hours, and 24 hours after administration. Plasma concentrations of ENDX PROTAC 7 and 9 were measured using UPLC-MS/MS.

[1] = mice, oral 10 mg/kg, NaF in tubes

Concentration ENDX PROTAC 7 (IV (1 mg/kg), 120 minutes, listed as ENDX PROTAC 7, 1 mg/kg): 8.35 ng/mL and 9.53 ng/mL and 8.69 ng/mL
Concentration ENDX PROTAC 7 (PO (10 mg/kg), 15 minutes, listed as ENDX PROTAC 7, 10 mg/kg): 0.75 ng/mL and 0.7 ng/mL and 0.93 ng/mL
Concentration ENDX PROTAC 7 (PO (10 mg/kg), 30 minutes, listed as ENDX PROTAC 7, 10 mg/kg): 0.64 ng/mL and 0.81 ng/mL and 0.83 ng/mL
Concentration ENDX PROTAC 7 (PO (10 mg/kg), 360 minutes, listed as ENDX PROTAC 7, 10 mg/kg): 0.53 ng/mL and 0.4 ng/mL and 0.44 ng/mL
Concentration ENDX PROTAC 7 (PO (10 mg/kg), 480 minutes, listed as ENDX PROTAC 7, 10 mg/kg): 0.69 ng/mL and 0.37 ng/mL and 0.4 ng/mL
elimination half-life (mice, I.V. 1 mg/kg, NaF in tubes): 5 h
peak plasma concentration (mice, IV 1 mg/kg, NaF in tubes): 129.7 ng/mL
time of peak plasma concentration (mice, IV 1 mg/kg, NaF in tubes): ≤ 5 min
Oral bioavailability (mice, oral 10 mg/kg vs IV 1 mg/kg, NaF in tubes): 0.85%
peak plasma concentration [1]: 1.24 ng/mL
time of peak plasma concentration [1]: ≤ 60 min
Compound: CC/C(=C(\c1ccc(O)cc1)c1ccc(OCCN(C)C(=O)COCCNC(=O)Cc2ccc3c(c2)CN(C2CCC(=O)NC2=O)C3=O)cc1)c1ccccc1 (stereo not shown) [TC-Pr-007]
Concentration ENDX PROTAC 7 (IV (1 mg/kg), 15 minutes, listed as ENDX PROTAC 7, 1 mg/kg): 37.27 ng/mL and 57.95 ng/mL and 30.96 ng/mL
Concentration ENDX PROTAC 7 (IV (1 mg/kg), 30 minutes, listed as ENDX PROTAC 7, 1 mg/kg): 10.89 ng/mL and 19.85 ng/mL and 16.62 ng/mL
